From patent publication US6518314B1, “Pharmaceutical agents that impede the initiation and progression of primary and secondary DMS disruptions” (Nymox Corporation, priority 1997, dated 2003)

Tested on: human DMS
Assay: In vivo assay: intracerebral injection of human DMS plus compound into rats, histology of DMS disruption site
Details: for Mean Volume Disrupted DMS: mean tissue volume of transformed redistributed disrupted DMS protein per individual DMS, rats, about 100,000 human DMS and compound at 10^−5M; for Persistence of Inflamm. Reaction: ratio of number of acute inflammatory cells (excluding macrophages) per DMS at the DMS disruption site; for Persistence of Inflamm. Reaction / Digestion and removal of DMS: compared to control (ii) normalized to 1.0, compound at 10^−5M; for Digestion and removal of DMS: ratio of number of macrophages containing DMS material per DMS at the DMS disruption site

Structure (SMILES)	Mean Volume Disrupted DMS	Persistence of Inflamm. Reaction	Digestion and removal of DMS
CC(Cc1ccccc1)N1CCN(C(c2ccccc2)c2ccccc2)CC1 (racemic) [Compound 1, (±)-1-(1-Phenylisopropyl)-4-(diphenylmethyl)piperazine]	1250 μ^3	<0.01	>10
Clc1ccc2c(c1)C(N1CCNCC1)=Nc1ccccc1O2 [Amoxepine]	1.36 × 10^5 μ^3	1.1	1.0
CN1[C@@H]2CC[C@H]1C[C@@H](OC(=O)C(CO)c1ccccc1)C2 (stereo partly drawn) [Atropine]	–	1.0	1.0
CC(C)C[C@H]1C(=O)N2CCC[C@H]2[C@]2(O)O[C@](NC(=O)[C@@H]3C=C4c5cccc6[nH]c(Br)c(c56)C[C@H]4N(C)C3)(C(C)C)C(=O)N12 [Bromocriptine]	1.04 × 10^5 μ^3	1.0	1.0
c1ccc(C(OCCOC(c2ccccc2)c2ccccc2)c2ccccc2)cc1 [Compound 2, 1,2-Bis(diphenylmethoxy)ethane]	560 μ^3	<0.01	>10
Clc1ccc(C(OCCOC(c2ccccc2)c2ccc(Cl)cc2)c2ccccc2)cc1 (stereo not drawn) [Compound 4, 1,2-Bis(4chlorophenylphenylmethoxy)ethane]	580 μ^3	<0.01	>10
FC(F)(F)c1ccc(C(OCCOC(c2ccccc2)c2ccc(C(F)(F)F)cc2)c2ccccc2)cc1 (stereo not drawn) [Compound 5, 1,2-Bis(4-trifluoromethylphenylphenylmethoxy)ethane]	940 μ^3	<0.01	>10
Cc1ccccc1C(OCCOC(c1ccccc1)c1ccccc1C)c1ccccc1 (stereo not drawn) [Compound 6, 1,2-Bis(2-methylphenylphenylmethoxy)ethane]	940 μ^3	<0.01	>10
CN(CCC=C1c2ccccc2CCc2ccccc21)CCOC(c1ccccc1)c1ccccc1 [Compound 9, 3-(10,11-Dihydro-5H-dibenzo[a,d]cyclohepten-5-ylidene-N-methyl-N-[2-(diphenylmethoxy)ethyl)]-1-propaneamine]	482 μ^3	<0.01	>10
CN(CCC=C1c2ccccc2CCc2ccccc21)CCOC(c1ccccc1)c1ccc(Cl)cc1 (stereo not drawn) [Compound 10, 3-(10,11-Dihydro-5H-dibenzo[a,d]cyclohepten-5-ylidene-N-methyl-N-[2-(4-chlorophenylphenylmethoxy)ethyl)]-1-propaneamine]	460 μ^3	<0.01	>10
COC(=O)C1=C(C)N(CCOC(c2ccccc2)c2ccccc2)C(C)=C(C(=O)OC)C1c1ccccc1 [Compound 11]	1260 μ^3	<0.01	>10
CC(COc1ccc(/C(=C/c2ccccc2)c2ccccc2)cc1)N1CCN(C(c2ccccc2)c2ccccc2)CC1 (stereo not drawn) [Compound 12]	740 μ^3	<0.01	>10
Cn1cnc2c1c(=O)n(CCOC(c1ccccc1)c1ccccc1)c(=O)n2C [Compound 13]	1625 μ^3	<0.01	>10
Cn1cnc2c1c(=O)n(CCOC(c1ccccc1)c1ccc(Cl)cc1)c(=O)n2C (stereo not drawn) [Compound 14]	1625 μ^3	<0.01	>10
CN1C(=O)CN=C(c2ccccc2)c2cc(Cl)ccc21 [Diazepam]	6.5 × 10^4 μ^3	1.1	1.0
CC[N+](C)(C)c1cccc(O)c1 [Edrophonium Chloride]	–	1.0	1.0
C[C@@H](CO)NC(=O)[C@@H]1C=C2c3cccc4[nH]cc(c34)C[C@H]2N(C)C1 [Ergonovine]	5.2 × 10^4 μ^3	1.0	1.0
CN1C[C@H](C(=O)N[C@]2(C)O[C@@]3(O)[C@@H]4CCCN4C(=O)[C@H](Cc4ccccc4)N3C2=O)C=C2c3cccc4[nH]cc(c34)C[C@H]21 [Ergotamine]	5.8 × 10^4 μ^3	1.0	1.0
CN(C)CCCN1c2ccccc2CCc2ccccc21 [Imipramine]	1.38 × 10^5 μ^3	1.0	1.0
O=C1Nc2ccc(Cl)cc2C(c2ccccc2Cl)=NC1O (stereo not drawn) [Lorazepam]	8.2 × 10^4 μ^3	1.1	1.0
CCOC(=O)C1(c2ccccc2)CCN(C)CC1 [Meperidine]	2.1 × 10^5 μ^3	1.0	1.0
COC(=O)C(c1ccccc1)C1CCCCN1 (stereo not drawn) [Methylphenidate]	5.8 × 10^4 μ^3	1.1	1.01
CN(C)C(=O)Oc1cccc([N+](C)(C)C)c1 [Neostigmine]	1.4 × 10^5 μ^3	1.1	1.0
O=C1Nc2ccc(Cl)cc2C(c2ccccc2)=NC1O (stereo not drawn) [Oxazepam]	6.8 × 10^4 μ^3	1.1	1.0
CCCN1C[C@H](CSC)C[C@@H]2c3cccc4[nH]cc(c34)C[C@H]21 [Pergolide]	1.2 × 10^5 μ^3	1.1	1.0
CNC(=O)Oc1ccc2c(c1)[C@]1(C)CCN(C)[C@@H]1N2C [Physostigmine]	1.1 × 10^5 μ^3	1.0	1.0
CC[C@@H]1C(=O)OC[C@@H]1Cc1cncn1C [Pilocarpine]	1.7 × 10^5 μ^3	1.1	1.0
CN(C)C(=O)Oc1ccc[n+](C)c1 [Pyridostigmine bromide]	–	1.1	1.0
C#CCN(C)[C@H](C)Cc1ccccc1 [Selegiline]	1.3 × 10^5 μ^3	1.0	1.0
Nc1c2c(nc3ccccc13)CCCC2 [Tacrine]	1.4 × 10^5 μ^3	1.1	1.0
